Source: patent publication US20240327412A1, “FACTOR XIIA INHIBITORS” (KALVISTA PHARMACEUTICALS LIMITED, priority 2021, published 2024)

Key:
Type in all cases: biochemical
KLK1 = KLK1 (Homo sapiens, UniProt P06870); assay: Related protease inhibition: KLK1 (fluorogenic substrate at Km); conditions: class symbols per Table 18
Procedure: (§1) In vitro inhibition of related proteases was determined using an IC50 assay based on standard literature methods (see e.g. Shori et al., Biochem. Pharmacol., 1992, 43, 1209; Bouckaert et al., European Journal of Medicinal Chemistry 110 (2016) 181). Human serine protease enzyme Plasma Kallikrein, KLK1, FXa, Plasmin, Thrombin and Trypsin were assayed for enzymatic activity using an appropriate fluorogenic substrate at Km concentration, FXIa at fixed substrate concentration of 100 μM and various concentrations of the test compound. Protease activity was measured by monitoring the accumulation of liberated fluorescence from the substrate over 5 min at 25° C. The linear rate of fluorescence increase per minute was expressed as percentage (%) activity. IC50 values were calculated as the concentration of inhibitor giving 50% inhibition of the uninhibited enzyme activity (100%).

Plasma Kallikrein = target: T1, Plasma Kallikrein (Homo sapiens, UniProt P03952); assay: Related protease inhibition: Plasma Kallikrein (fluorogenic substrate at Km); conditions: class symbols per Table 18, read-out: IC50 (human PKal)
T1 construct: FXIIa converts plasma prekallikrein (PK) to plasma kallikrein (PKa)
T1 sequence (P03952 391-638 limits assumed): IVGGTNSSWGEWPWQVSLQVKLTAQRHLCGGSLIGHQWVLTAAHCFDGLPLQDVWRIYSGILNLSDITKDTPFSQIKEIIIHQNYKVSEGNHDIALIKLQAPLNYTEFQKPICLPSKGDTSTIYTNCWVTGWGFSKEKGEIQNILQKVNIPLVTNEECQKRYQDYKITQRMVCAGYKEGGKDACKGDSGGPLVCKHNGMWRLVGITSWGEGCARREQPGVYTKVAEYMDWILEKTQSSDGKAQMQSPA
T1 sequence (P03952 20-390 partner limits assumed): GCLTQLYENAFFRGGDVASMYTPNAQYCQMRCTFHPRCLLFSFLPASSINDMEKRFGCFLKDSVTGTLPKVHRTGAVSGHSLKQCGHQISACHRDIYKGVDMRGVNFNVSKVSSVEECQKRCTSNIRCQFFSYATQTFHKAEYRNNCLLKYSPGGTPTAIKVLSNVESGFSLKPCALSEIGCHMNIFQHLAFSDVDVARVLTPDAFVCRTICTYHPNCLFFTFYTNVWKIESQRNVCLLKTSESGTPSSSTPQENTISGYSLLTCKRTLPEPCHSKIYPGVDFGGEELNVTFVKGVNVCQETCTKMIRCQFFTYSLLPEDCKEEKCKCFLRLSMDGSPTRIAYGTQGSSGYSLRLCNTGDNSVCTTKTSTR
Summary of the method: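 Human enzymes; fluorogenic substrate at Km for thrombin, trypsin and plasma kallikrein, but fixed at 100 μM for FXIa. Fluorescence release followed over 5 min at 25 °C, linear rate expressed as % of uninhibited activity; IC50 = inhibitor concentration giving 50% inhibition.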

FXa = FXa (Homo sapiens, UniProt P00742); assay: Related protease inhibition: FXa (fluorogenic substrate at Km); conditions: class symbols per Table 18
FXa, sequence (P00742 235-488 limits assumed): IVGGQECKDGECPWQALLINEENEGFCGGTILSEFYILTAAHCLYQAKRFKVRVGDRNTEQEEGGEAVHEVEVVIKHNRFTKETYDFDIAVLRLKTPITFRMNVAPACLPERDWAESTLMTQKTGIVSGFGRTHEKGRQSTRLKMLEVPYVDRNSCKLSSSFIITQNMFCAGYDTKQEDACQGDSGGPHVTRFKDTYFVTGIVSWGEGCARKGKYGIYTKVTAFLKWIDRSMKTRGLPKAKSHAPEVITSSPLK
FXa, sequence (P00742 41-179 partner limits assumed): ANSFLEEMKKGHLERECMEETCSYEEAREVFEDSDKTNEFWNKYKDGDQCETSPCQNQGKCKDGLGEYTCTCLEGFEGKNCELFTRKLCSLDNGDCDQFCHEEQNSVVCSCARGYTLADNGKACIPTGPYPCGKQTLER
Procedure: as §1

Thrombin = Thrombin (Homo sapiens, UniProt P00734); assay: Related protease inhibition: Thrombin (fluorogenic substrate at Km); conditions: class symbols per Table 18
Procedure: as §1

Human Factor XIIa = target: T2, Human Factor XIIa (Homo sapiens, UniProt P00748); assay: Determination of FXIIa inhibition (fluorogenic substrate H-DPro-Phe-Arg-AFC, IC50 assay); conditions: substrate at Km concentration, 25° C.; category scale; read-out: Human FXII IC50 (nm)
T2 construct: Proteolytic cleavage of FXII to heavy and light chains of FXIIa dramatically increases catalytic activity; purchased Enzyme Research Laboratories
T2 sequence (P00748 373-615 limits assumed): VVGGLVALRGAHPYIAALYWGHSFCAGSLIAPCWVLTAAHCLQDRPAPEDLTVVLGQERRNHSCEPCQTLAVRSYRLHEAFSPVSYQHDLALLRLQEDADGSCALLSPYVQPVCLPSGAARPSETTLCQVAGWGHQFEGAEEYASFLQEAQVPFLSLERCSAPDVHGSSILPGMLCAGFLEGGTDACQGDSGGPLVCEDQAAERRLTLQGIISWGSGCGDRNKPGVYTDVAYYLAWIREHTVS
T2 sequence (P00748 20-372 partner limits assumed): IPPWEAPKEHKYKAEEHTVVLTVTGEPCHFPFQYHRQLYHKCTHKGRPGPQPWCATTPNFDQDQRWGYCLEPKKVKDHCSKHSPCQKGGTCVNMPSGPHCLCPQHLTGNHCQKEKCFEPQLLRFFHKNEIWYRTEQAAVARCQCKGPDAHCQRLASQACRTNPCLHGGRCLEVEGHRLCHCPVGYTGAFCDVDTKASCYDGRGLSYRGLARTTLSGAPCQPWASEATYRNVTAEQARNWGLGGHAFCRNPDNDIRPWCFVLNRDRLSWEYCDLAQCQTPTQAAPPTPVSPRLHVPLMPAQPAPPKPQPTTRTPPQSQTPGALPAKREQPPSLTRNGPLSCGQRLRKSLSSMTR
Summary of the method: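 At substrate Km and 25° C., the rate of AFC release from H-DPro-Phe-Arg-AFC by human Factor XIIa was followed for 5 min across compound concentrations. Inhibition was derived as percent of uninhibited rate, giving IC50.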

KLK1, sequence (P06870 25-262): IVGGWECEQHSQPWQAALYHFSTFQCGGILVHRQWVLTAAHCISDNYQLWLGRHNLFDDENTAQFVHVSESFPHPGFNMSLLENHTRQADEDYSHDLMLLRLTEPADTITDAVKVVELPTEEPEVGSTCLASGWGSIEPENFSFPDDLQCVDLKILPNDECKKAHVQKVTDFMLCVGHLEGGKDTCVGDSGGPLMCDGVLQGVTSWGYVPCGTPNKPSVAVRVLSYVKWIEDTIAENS

| SMILES | IC50 (KLK1) | IC50 (Plasma Kallikrein) | IC50 (FXa) | IC50 (Thrombin) | IC50 (Human Factor XIIa) |
| --- | --- | --- | --- | --- | --- |
| Nc1nccc2c(NCC34CC(CN5CCn6ccnc6C5)(C3)C4)cccc12 [Example 1004, 5-N-[[3-(6,8-Dihydro-5H-imidazo[1,2-a]pyrazin-7-ylmethyl)-1-bicyclo[1.1.1]pentanyl]methyl]isoquinoline-1,5-diamine] | 3 to 10 µM | > 40 µM | 1 to 3 µM | 10 to 40 µM | 3 to 10 µM |
| Cc1cn2ccc(OCC34CC(CNc5cccc6c(N)nccc56)(C3)C4)cc2n1 [Example 1006, N5-((3-(((2-Methylimidazo[1,2-a]pyridin-7-yl)oxy)methyl)bicyclo[1.1.1]pentan-1-yl)methyl)isoquinoline-1,5-diamine] | 1 to 3 µM | > 40 µM | 1 to 3 µM | 10 to 40 µM | 0.1 to 0.3 µM |
| c1cc2cc(NCC34CC(COc5ccn6ccnc6c5)(C3)C4)ccc2cn1 [Example 1011, N-((3-((imidazo[1,2-a]pyridin-7-yloxy)methyl)bicyclo[1.1.1]pentan-1-yl)methyl)isoquinolin-6-amine] | 10 to 40 µM | > 100 µM | 1 to 3 µM | 10 to 40 µM | 10 to 40 µM |
| Cc1cc2c(NCC34CC(COc5ccn6ccnc6c5)(C3)C4)ccnc2[nH]1 [Example 1012, N-((3-((Imidazo[1,2-a]pyridin-7-yloxy)methyl)bicyclo[1.1.1]pentan-1-yl)methyl)-2-methyl-1H-pyrrolo[2,3-b]pyridin-4-amine] | > 40 µM | > 100 µM | 1 to 3 µM | 1 to 3 µM | 1 to 3 µM |
| Nc1nccc2c(NCC34CC(C(=O)N5CCn6ccnc6C5)(C3)C4)cccc12 [Example 1016, [3-[[(1-Aminoisoquinolin-5-yl)amino]methyl]-1-bicyclo[1.1.1]pentanyl]-(6,8-dihydro-5H-imidazo[1,2-a]pyrazin-7-yl)methanone] | 3 to 10 µM | > 40 µM | > 40 µM | > 40 µM | 3 to 10 µM |
| Nc1nccc2c(NCC34CC(COc5ccc6nccn6c5)(C3)C4)cccc12 [Example 1017, 5-N-[[3-(Imidazo[1,2-a]pyridin-6-yloxymethyl)-1-bicyclo[1.1.1]pentanyl]methyl]isoquinoline-1,5-diamine] | 3 to 10 µM | > 40 µM | 10 to 40 µM | 10 to 40 µM | 0.1 to 0.3 µM |
| Cn1ccc(OCC23CC(CNc4cccc5c(N)nccc45)(C2)C3)cc1=O [Example 1019, 4-[[3-[[(1-aminoisoquinolin-5-yl)amino]methyl]-1-bicyclo[1.1.1]pentanyl]methoxy]-1-methylpyridin-2-one] | 3 to 10 µM | > 40 µM | 10 to 40 µM | 10 to 40 µM | 0.3 to 1 µM |
| Nc1nccc2c(NCC34CC(COc5cnc6cc[nH]c6c5)(C3)C4)cccc12 [Example 1101, 5-N-[[3-(1H-pyrrolo[3,2-b]pyridin-6-yloxymethyl)-1-bicyclo[1.1.1]pentanyl]methyl]isoquinoline-1,5-diamine] | 3 to 10 µM | > 40 µM | 1 to 3 µM | 10 to 40 µM | 3 to 10 µM |
| Nc1nccc2c(NCC34CC(COc5ccc6nc[nH]c6c5)(C3)C4)cccc12 [Example 1105, N5-((3-(((1H-benzo[d]imidazol-6-yl)oxy)methyl)bicyclo[1.1.1]pentan-1-yl)methyl)isoquinoline-1,5-diamine] | 3 to 10 µM | > 40 µM | 1 to 3 µM | 10 to 40 µM | 3 to 10 µM |
| Nc1nccc2c(NCC34CC(COc5ccc6c(c5)C(=O)NC6)(C3)C4)cccc12 [Example 1109, 6-((3-(((1-aminoisoquinolin-5-yl)amino)methyl)bicyclo[1.1.1]pentan-1-yl)methoxy)isoindolin-1-one] | 1 to 3 µM | > 40 µM | 10 to 40 µM | 10 to 40 µM | 0.3 to 1 µM |
| Nc1nccc2c(NCC34CC(COC5Cc6nccn6C5)(C3)C4)cccc12 (centres unmarked) [Example 1118, N5-((3-(((6,7-dihydro-5H-pyrrolo[1,2-a]imidazol-6-yl)oxy)methyl)bicyclo[1.1.1]pentan-1-yl)methyl)isoquinoline-1,5-diamine] | 3 to 10 µM | > 40 µM | > 40 µM | 10 to 40 µM | 1 to 3 µM |

Other lines, results leading:

| IC50 (KLK1) | IC50 (Plasma Kallikrein) | IC50 (FXa) | IC50 (Thrombin) | IC50 (Human Factor XIIa) | SMILES |
| --- | --- | --- | --- | --- | --- |
| 3 to 10 µM | > 40 µM | > 40 µM | > 40 µM | 0.3 to 1 µM | Nc1nccc2c(NCC34COC(COc5ccc6nnc(C(F)F)n6n5)(C3)C4)cccc12 [Example 2204, N5-((1-(((3-(difluoromethyl)-[1,2,4]triazolo[4,3-b]pyridazin-6-yl)oxy)methyl)-2-oxabicyclo[2.1.1]hexan-4-yl)methyl)isoquinoline-1,5-diamine] |
| 1 to 3 µM | > 40 µM | > 40 µM | > 40 µM | 0.3 to 1 µM | Nc1nccc2c(NC[C@H]3C[C@H](COc4ccn5ccnc5c4)C3)cccc12 [Example 4401, N5-((trans-3-((imidazo[1,2-a]pyridin-7-yloxy)methyl)cyclobutyl)methyl)isoquinoline-1,5-diamine] |
| 3 to 10 µM | > 40 µM | > 40 µM | > 40 µM | 0.1 to 0.3 µM | Nc1nccc2c(NC[C@H]3C[C@@H](COc4ccn5ccnc5c4)C3)cccc12 [Example 5003, N5-((cis-3-((imidazo[1,2-a]pyridin-7-yloxy)methyl)cyclobutyl)methyl)isoquinoline-1,5-diamine] |
| 3 to 10 µM | > 40 µM | 10 to 40 µM | 10 to 40 µM | 0.01 to 0.1 µM | Nc1nccc2c(NCC34CC(COc5ccn6ccnc6c5)(CO3)C4)cccc12 [Example 6601, 5-N-[[4-(Imidazo[1,2-a]pyridin-7-yloxymethyl)-2-oxabicyclo[2.1.1]hexan-1-yl]methyl]isoquinoline-1,5-diamine] |
| 10 to 40 µM | > 40 µM | 10 to 40 µM | 10 to 40 µM | 3 to 10 µM | Cc1cc2c(NCC34CC(COc5ccn6ccnc6c5)(CO3)C4)ccnc2[nH]1 [Example 6605, N-((4-((imidazo[1,2-a]pyridin-7-yloxy)methyl)-2-oxabicyclo[2.1.1]hexan-1-yl)methyl)-2-methyl-1H-pyrrolo[2,3-b]pyridin-4-amine] |
| 3 to 10 µM | > 40 µM | > 40 µM | > 40 µM | 0.3 to 1 µM | Nc1nccc2c(NCC34CC(COc5ccc6nnc(C(F)F)n6n5)(CO3)C4)cccc12 [Example 6608, N5-((4-(((3-(difluoromethyl)-[1,2,4]triazolo[4,3-b]pyridazin-6-yl)oxy)methyl)-2-oxabicyclo[2.1.1]hexan-1-yl)methyl)isoquinoline-1,5-diamine] |
| 3 to 10 µM | > 40 µM | > 40 µM | > 40 µM | 0.1 to 0.3 µM | Cn1ccc(OCC23COC(CNc4cccc5c(N)nccc45)(C2)C3)cc1=O [Example 6609, 4-((1-(((1-aminoisoquinolin-5-yl)amino)methyl)-2-oxabicyclo[2.1.1]hexan-4-yl)methoxy)-1-methylpyridin-2(1H)-one] |
| 10 to 40 µM | > 4 µM | > 40 µM | – | 0.01 to 0.1 µM | CC(=O)N1CC2(COc3ccn(C)c(=O)c3)CC1(CNc1cccc3c(N)nccc13)C2 [Example 12009, 4-((2-acetyl-1-(((1-aminoisoquinolin-5-yl)amino)methyl)-2-azabicyclo[2.1.1]hexan-4-yl)methoxy)-1-methylpyridin-2(1H)-one] |
| > 4 µM | > 40 µM | > 4 µM | – | 0.01 to 0.1 µM | Cn1ccc(OCC23CC(CNc4cccc5c(N)nccc45)(CN2C(=O)OCc2ccccc2)C3)cc1=O [Example 13001, benzyl 4-(((1-aminoisoquinolin-5-yl)amino)methyl)-1-(((1-methyl-2-oxo-1,2-dihydropyridin-4-yl)oxy)methyl)-2-azabicyclo[2.1.1]hexane-2-carboxylate] |
